Results on ten compounds are retold here after US9504747B2, “Lipids and lipid compositions for the delivery of active agents” (Novartis AG, priority 2013, dated 2016).

As usually defined, the pKa is the pH at which an ionisable group is half protonated.

A short description of the first series: pKa measurement of the cationic lipid (TNS fluorescence vs pH). The conditions noted are these: probe TNS (fluorescent probe), Table 4; pKa of the cationic lipid of formula (I). In kind it is physicochemical. How it is done:
Unless indicated otherwise, all pKa's referred to herein were measured at standard temperature and pressure. Also, unless otherwise indicated, all references to pKa are references to pKa measured using the following technique. 2 mM solution of lipid in ethanol was prepared by weighing the lipid and then dissolving it in ethanol. 0.3 mM solution of fluorescent probe TNS in ethanol:methanol 9:1 was prepared by first making 3 mM solution of TNS in methanol and then diluting to 0.3 mM with ethanol. An aqueous buffer containing 200 mM sodium phosphate dibasic and 100 mM citric acid was prepared. […] Using the Hamilton Microlab Star high throughput liquid handler and Hamilton run control software Software, 7.5 uL of probe/lipid mix were added to 242.5 uL of buffer in a 1 mL 96 well plate (model NUNC 260252, […] Nunc International). This was done with all twelve buffers. After mixing in 1 mL 96 well plate, 100 uL of each probe/lipid/buffer mixture was transferred to a 250 uL black with clear bottom 96 well plate (model COSTAR 3904, Corning). The fluorescence measurements are carried out on the SpectraMax M5 spectrophotometer using software SoftMax pro 5.2 and following parameters: After the measurement, the background fluorescence value of an empty well on the 96 well plate was subtracted from each probe/lipid/buffer mixture. The fluorescence intensity values were then normalized to the value at lowest pH. The normalized fluorescence intensity vs. pH chart was then plotted in the Microsoft Excel software. The twelve points were connected with a smooth line. The point on the line at which the normalized fluorescence intensity was equal to 0.5 was found. […] The pKa determined using this method is precise to about 0.1 pKa units.
Compound `CCCCCCCCCC(=O)OCCCCCCOc1cc(CN(C)C)cc(OCCCCCCOC(=O)CCCCCCCCC)c1` [Example 47] came in with a pKa of 6.07.

The compound `CCCCCCCC(=O)OCCCCCCOc1cc(CN(C)C)cc(OCCCCCCOC(=O)CCCCCCC)c1` [Example 48] had a pKa of 5.93.

Turning to `CCCCC/C=C\C/C=C\CCCCCCCC(=O)OCCCCOc1cc(CN2CC(O)C2)cc(OCCCCOC(=O)CCCCCCC/C=C\C/C=C\CCCCC)c1` [Example 49], the pKa was determined as 5.99.

The compound `CCC/C=C\CCCCCCC(=O)OCCCCCCOc1cc(CN(C)C)cc(OCCCCCCOC(=O)CCCCCC/C=C\CCC)c1` [Example 50] registered a pKa of 5.92.

As to `CCCCCCCCCCCC(=O)OCCCCCCCCOc1cc(CN(C)C)cc(OCCCCCCCCOC(=O)CCCCCCCCCCC)c1` [Example 53], the pKa came out at 6.03.

As for `CCCCC/C=C\C/C=C\CCCCCCCC(=O)OCCCCOc1cc(CN(CC)CC)cc(OCCCCOC(=O)CCCCCCC/C=C\C/C=C\CCCCC)c1C` [Example 55], the pKa was determined as 6.37.

For the compound `CCCCCCCC/C=C\CCCCCCCC(=O)OCCCCOc1cc(CN(C)C)cc(OCCCCOC(=O)CCCCCCC/C=C\CCCCCCCC)c1` [Example 60], the pKa was 6.21.

As to `CCCCCCCCCCCCCC(=O)OCCCCOc1cc(CN(C)C)cc(OCCCCOC(=O)CCCCCCCCCCCCC)c1` [Example 61], the pKa came out at 5.82.

`CC/C=C\C/C=C\C/C=C\CCCCCCCC(=O)OCCCCOc1cc(CN(C)C)cc(OCCCCOC(=O)CCCCCCC/C=C\C/C=C\C/C=C\CC)c1` [Example 62] displayed a pKa of 5.9.

In the case of `CCCCC/C=C\C/C=C\CCCCCCCC(=O)OCCCC(=O)OCc1cc(COC(=O)CCCOC(=O)CCCCCCC/C=C\C/C=C\CCCCC)cc(CN(C)C)c1` [Example 82], the pKa turned out to be 6.03.

Another series in a line: Particle size of the lipid nanoparticle (dynamic light scattering, Malvern Zetasizer). Type of series: physicochemical. The conditions noted are these: Table 4; FVII siRNA LNP; Chol/DSPC/stealth lipid PEG-DMG, molar ratio 45/44/9/2; Z-average. The text has this: (§1) The lipid nanoparticles have a size of about 1 to about 2,500 nm, about 1 to about 1,500 nm, about 1 to about 1,000 nm, in a sub-embodiment about 50 to about 600 nm, in a sub-embodiment about 50 to about 400 nm, in a sub-embodiment about 50 to about 250 nm, and in a sub-embodiment about 50 to about 150 nm. Unless indicated otherwise, all sizes referred to herein are the average sizes (diameters) of the fully formed nanoparticle, as measured by dynamic light scattering on a Malvern Zetasizer. The nanoparticle sample is diluted in phosphate buffered saline (PBS) so that the count rate is approximately 200-400 kcts. The data is presented as a weighted average of the intensity measure. The lipid nanoparticles (LNPs) were formed by mixing equal volumes of lipids dissolved in alcohol with siRNA dissolved in a citrate buffer by an impinging jet process. […] The siRNA to total lipid ratio is approximately 0.05 (wt/wt). Where a LNP formulation contains four lipid components, the molar ratios correspond to the type of lipid as it appears in the first four columns of the table, in the order that they appear. The ratio of the lipids ranges from 20 to 70 mole percent for the cationic lipid with a target of 40-60, the mole percent of helper lipid ranges from 20 to 70 with a target of 30 to 50, the mole percent of neutral lipid ranges from 0-30, the mole percent of PEG lipid has a range from 1 to 6 with a target of 2 to 5. The concentration of siRNA solution ranges from 0.7 to 1.0 mg/mL with a target of 0.8 to 0.9 mg/mL in a sodium citrate: sodium chloride buffer pH 4-6, with a target of 4.5-5.5. The LNPs are formed by mixing equal volumes of lipid solution in ethanol with siRNA dissolved in a citrate buffer by an impinging jet process through a mixing device with ID ranging from 0.25 to 2.0 mm at a flow rate from 10 to 640 mL/min. The mixed LNP solution is held at room temperature for 0-24 hrs prior to a dilution step. […] The final product is sterile filtered and stored at 4° C. Unless indicated otherwise, all particle size measurements referred to in Tables 4 and 5 are the Z-average particle size of the fully formed nanoparticle, as measured by dynamic light scattering on a Malvern Zetasizer. The nanoparticle sample was diluted in phosphate buffered saline (PBS) so that the count rate is approximately 200-400 kcts.
As for `CCCCCCCCCC(=O)OCCCCCCOc1cc(CN(C)C)cc(OCCCCCCOC(=O)CCCCCCCCC)c1` [Example 47], the “Size (nm)” value amounted to 109.3 nm.

Take `CCCCCCCCCCCC(=O)OCCCCCCCCOc1cc(CN(C)C)cc(OCCCCCCCCOC(=O)CCCCCCCCCCC)c1` [Example 53]: the “Size (nm)” value is listed as 129.1 nm.

As to `CCCCC/C=C\C/C=C\CCCCCCCC(=O)OCCCCOc1cc(CN(CC)CC)cc(OCCCCOC(=O)CCCCCCC/C=C\C/C=C\CCCCC)c1C` [Example 55], the “Size (nm)” value stood at 101.9 nm.

The series is the same for the next values; noted with them: Table 4; FVII siRNA LNP; Chol/DSPC/stealth lipid S010, molar ratio 45/44/9/2; Z-average.
Take `CCCCCCCCCC(=O)OCCCCCCOc1cc(CN(C)C)cc(OCCCCCCOC(=O)CCCCCCCCC)c1` [Example 47]: the “Size (nm)” value is listed as 125.9 nm.

As for `CCCCCCCC(=O)OCCCCCCOc1cc(CN(C)C)cc(OCCCCCCOC(=O)CCCCCCC)c1` [Example 48], the “Size (nm)” value was 152.3 nm.

As for `CCCCC/C=C\C/C=C\CCCCCCCC(=O)OCCCCOc1cc(CN2CC(O)C2)cc(OCCCCOC(=O)CCCCCCC/C=C\C/C=C\CCCCC)c1` [Example 49], the “Size (nm)” value turned out to be 111.1 nm.

Regarding `CCC/C=C\CCCCCCC(=O)OCCCCCCOc1cc(CN(C)C)cc(OCCCCCCOC(=O)CCCCCC/C=C\CCC)c1` [Example 50], the “Size (nm)” value is recorded as 126 nm.

In the case of `CCCCCCCCCCCC(=O)OCCCCCCCCOc1cc(CN(C)C)cc(OCCCCCCCCOC(=O)CCCCCCCCCCC)c1` [Example 53], the “Size (nm)” value is recorded as 113.3 nm.

With `CCCCC/C=C\C/C=C\CCCCCCCC(=O)OCCCCOc1cc(CN(CC)CC)cc(OCCCCOC(=O)CCCCCCC/C=C\C/C=C\CCCCC)c1C` [Example 55], the “Size (nm)” value came to 106.9 nm.

On to `CCCCCCCC/C=C\CCCCCCCC(=O)OCCCCOc1cc(CN(C)C)cc(OCCCCOC(=O)CCCCCCC/C=C\CCCCCCCC)c1` [Example 60], for which the “Size (nm)” value is 95.55 nm.

Turning to `CCCCCCCCCCCCCC(=O)OCCCCOc1cc(CN(C)C)cc(OCCCCOC(=O)CCCCCCCCCCCCC)c1` [Example 61], the “Size (nm)” value was 81.79 nm.

For the compound `CC/C=C\C/C=C\C/C=C\CCCCCCCC(=O)OCCCCOc1cc(CN(C)C)cc(OCCCCOC(=O)CCCCCCC/C=C\C/C=C\C/C=C\CC)c1` [Example 62], the “Size (nm)” value was found to be 102.5 nm.

Turning to `CCCCC/C=C\C/C=C\CCCCCCCC(=O)OCCCC(=O)OCc1cc(COC(=O)CCCOC(=O)CCCCCCC/C=C\C/C=C\CCCCC)cc(CN(C)C)c1` [Example 82], the “Size (nm)” value was 119.2 nm.

A short description of another series: Polydispersity index (PDI) of the lipid nanoparticle (dynamic light scattering). Type of series: physicochemical. The conditions noted are these: Table 4; FVII siRNA LNP; Chol/DSPC/stealth lipid PEG-DMG, 45/44/9/2.
Source text: as §1, with “The” for “The lipid nanoparticles have a size of about 1 to about 2,500 nm, about 1 to about 1,500 nm, about 1 to about 1,000 nm, in a sub-embodiment about 50 to about 600 nm, in a sub-embodiment about 50 to about 400 nm, in a sub-embodiment about 50 to about 250 nm, and in a sub-embodiment about 50 to about 150 nm. Unless indicated otherwise, all sizes referred to herein are the average sizes (diameters) of the fully formed nanoparticle, as measured by dynamic light scattering on a Malvern Zetasizer. The nanoparticle sample is diluted in phosphate buffered saline (PBS) so that the count rate is approximately 200-400 kcts. The data is presented as a weighted average of the intensity measure. The”, “all PDIs” for “all particle size measurements”, “to herein” for “to in Tables 4 and 5”, “the PDI” for “the Z-average particle size”, “rate was” for “rate is”, “kcts. The data is presented in Tables 4 and 5 as a weighted average of the intensity measure.” for “kcts.”
Regarding `CCCCCCCCCC(=O)OCCCCCCOc1cc(CN(C)C)cc(OCCCCCCOC(=O)CCCCCCCCC)c1` [Example 47], the PDI came to 0.06.

For the compound `CCCCCCCCCCCC(=O)OCCCCCCCCOc1cc(CN(C)C)cc(OCCCCCCCCOC(=O)CCCCCCCCCCC)c1` [Example 53], the PDI was found to be 0.1.

Consider `CCCCC/C=C\C/C=C\CCCCCCCC(=O)OCCCCOc1cc(CN(CC)CC)cc(OCCCCOC(=O)CCCCCCC/C=C\C/C=C\CCCCC)c1C` [Example 55], for which the PDI stood at 0.10.

The same series, now with this note: Table 4; FVII siRNA LNP; Chol/DSPC/stealth lipid S010, 45/44/9/2.
In the case of `CCCCCCCCCC(=O)OCCCCCCOc1cc(CN(C)C)cc(OCCCCCCOC(=O)CCCCCCCCC)c1` [Example 47], the PDI is 0.035.

The compound `CCCCCCCC(=O)OCCCCCCOc1cc(CN(C)C)cc(OCCCCCCOC(=O)CCCCCCC)c1` [Example 48] showed a PDI of 0.105.

`CCCCC/C=C\C/C=C\CCCCCCCC(=O)OCCCCOc1cc(CN2CC(O)C2)cc(OCCCCOC(=O)CCCCCCC/C=C\C/C=C\CCCCC)c1` [Example 49] had a PDI of 0.046.

With `CCC/C=C\CCCCCCC(=O)OCCCCCCOc1cc(CN(C)C)cc(OCCCCCCOC(=O)CCCCCC/C=C\CCC)c1` [Example 50], the PDI was found to be 0.056.

`CCCCCCCCCCCC(=O)OCCCCCCCCOc1cc(CN(C)C)cc(OCCCCCCCCOC(=O)CCCCCCCCCCC)c1` [Example 53] came in with a PDI of 0.079.

As to `CCCCC/C=C\C/C=C\CCCCCCCC(=O)OCCCCOc1cc(CN(CC)CC)cc(OCCCCOC(=O)CCCCCCC/C=C\C/C=C\CCCCC)c1C` [Example 55], the PDI was 0.043.

`CCCCCCCC/C=C\CCCCCCCC(=O)OCCCCOc1cc(CN(C)C)cc(OCCCCOC(=O)CCCCCCC/C=C\CCCCCCCC)c1` [Example 60] returned a PDI of 0.098.

Regarding `CCCCCCCCCCCCCC(=O)OCCCCOc1cc(CN(C)C)cc(OCCCCOC(=O)CCCCCCCCCCCCC)c1` [Example 61], the PDI is on record as 0.076.

Turning to `CC/C=C\C/C=C\C/C=C\CCCCCCCC(=O)OCCCCOc1cc(CN(C)C)cc(OCCCCOC(=O)CCCCCCC/C=C\C/C=C\C/C=C\CC)c1` [Example 62], the PDI was found to be 0.066.

`CCCCC/C=C\C/C=C\CCCCCCCC(=O)OCCCC(=O)OCc1cc(COC(=O)CCCOC(=O)CCCCCCC/C=C\C/C=C\CCCCC)cc(CN(C)C)c1` [Example 82] showed a PDI of 0.064.
